Values quoted from earlier work, collected in EP4759820A1, “METHOD FOR PRODUCING PEPTIDE COMPOUND USING STAND-ALONE-TYPE CONDENSING AGENT” (CHUGAI SEIYAKU KABUSHIKI KAISHA, priority 2023, dated 2025).
Where two headings read alike, the source gives them in different places.

Settings: water as solvent, 25°C, literature reference given with each value

Row | pKa (representative additives) | pKa (conjugate acid of the base) | Structure (SMILES)
1 | 5.8 | – | CCOC(=O)C(=NO)S(N)(=O)=O [Ethyl 2-(hydroxyimino)-2-sulfamoylacetate]
2 | 6.6 | – | ON=c1[nH]cco1 [Oxazol-2(3H)-one oxime]
3 | 7.7 | – | NC(=O)C(NO)C(=O)N(O)O (stereo not shown) [N',N'-Dihydroxy-2-(hydroxyamino)malonamide]
4 | 4.60 | – | CCOC(=O)C(C#N)=NO [oxyma, ethyl 2-cyano-2-(hydroxyimino)acetate]
5 | – | 7.38 | CN1CCOCC1 [N-methylmorpholine]
6 | 12.5 | – | NC(=NO)c1cnccn1 [N'-Hydroxypyrazine-2-carboximidamide]
7 | 4.2 | – | CCOC(=O)C(=NO)S(=O)(=O)C(F)(F)F [Ethyl 2-(hydroxyimino)-2-((trifluoromethyl)sulfonyl)acetate]
8 | 9.6 | – | CCOC(=O)C(=NO)c1ccncc1 [Ethyl 2-(hydroxyimino)-2-(pyridine-4-yl)acetate]
9 | 5.8 | – | O=c1c2ncccc2ncn1O [HODhad, 3-Hydroxypyrido[3,2-d]pyrimidin-4(3H)-one]
10 | 4.60 | – | CC(C)(C)OC(=O)C(C#N)=NO [tert-Butyl 2-cyano-2-(hydroxyimino)acetate]
11 | 7.6 | – | O=[N+]([O-])C(=NO)c1ccccc1 [Nitro(phenyl)methanone oxime]
12 | 9.6 | – | CCOC(=O)C(=NO)c1ccc[nH]1 [Ethyl 2-(hydroxyimino)-(1H-pyrrol-2-yl)acetate]
13 | 7.7 | – | O=C1CCC(=O)N1O [HOSu, 1-Hydroxypyrrolidine-2,5-dione]
14 | 12.5 | – | ON=C1NCCO1 [Oxazolidin-2-one oxime]
15 | 9.6 | – | CCOC(=O)C(=NO)c1ccccn1 [Ethyl 2-(hydroxyimino)-2-(pyridine-2-yl)acetate]
16 | 12.5 | – | ON=C1NCCN1 [Imidazolidin-2-one oxime]
17 | 9.4 | – | CCOC(=O)C(=NO)c1cnccn1 [Ethyl 2-(hydroxyimino)-2-(pyrazin-2-yl)acetate]
18 | 9.6 | – | CCOC(=O)C(=NO)c1cccs1 [Ethyl 2-(hydroxyimino)-2-(thiophen-2-yl)acetate]
19 | 9.6 | – | C#CC(=NO)C(=O)OCC [Ethyl 2-(hydroxyimino)but-3-ynoate]
20 | 4.7 | – | CCOC(=O)C(NO)[N+](=O)[O-] (stereo not shown) [Ethyl 2-(hydroxyamino)-2-nitroacetate]
21 | 9.6 | – | CCOC(=O)C(=NO)c1ncccn1 [Ethyl 2-(hydroxyimino)-2-(pyrimidin-2-yl)acetate]
22 | 8.2 | – | N#CC(=NO)c1ccccc1 [Hydroxyimino-2-phenylacetonitrile]
23 | 8.3 | – | O=C1Cc2ccccc2N1O [HOI, 1-Hydroxyindolin-2-one]

The remaining lines, values behind:

Row | Structure (SMILES) | pKa (representative additives) | pKa (conjugate acid of the base)
24 | ON=C1c2ccccc2-c2ccccc21 [9H-Fluoren-9-one oxime] | 11.1 | –
25 | CS(=O)(=O)C(=NO)C(N)=O [2-(Hydroxyimino)-2-(methylsulfonyl)acetamide] | 9.4 | –
26 | C[n+]1ccccc1C(=NO)c1ccccn1.[I-] [2-((Hydroxyimino)(pyridin-2-yl)methyl)-1-methylpyridin-1-iumiodide] | 5.6 | –
27 | NC(=O)C(=NO)c1ccc[nH]1 [2-(Hydroxyimino)-2-(1H-pyrrol-2-yl)acetamide] | 9.4 | –
28 | ON=C1c2ccccc2C(=NO)c2ccccc21 [Anthracene-9,10-dionedioxime] | 7.1 | –
29 | NC(=O)C(=NO)c1ncccn1 [2-(Hydroxyimino)-2-(pyrimidin-2-yl)acetamide] | 9.4 | –
30 | NC(=O)C(=NO)C(N)=O [2-(Hydroxyimino)malonamide] | 9.4 | –
31 | CCOC(=O)C(=NO)c1ccco1 [Ethyl 2-(furan-2-yl)-2-(hydroxyimino)acetate] | 9.6 | –
32 | NC(=O)C(=NO)c1cccs1 [2-(Hydroxyimino)-2-(thiophen-2-yl)acetamide] | 9.4 | –
33 | CCOC(=O)C(NO)C(=O)OCC [Diethyl 2-(hydroxyamino)malonate] | 7.2 | –
34 | CC(C)OC(=O)C(=NO)C(=O)OC(C)C [Diisopropyl 2-(hydroxyimino)malonate] | 7.2 | –
35 | O=[N+]([O-])C(CCc1ccccc1)=NO [1-Nitro-3-phenylpropan-1-oneoxime] | 7.4 | –
36 | CS(=O)(=O)C(=NO)[S+](N)[O-] (stereo not shown) [(Hydroxyimino)(methylsulfonyl)methanesulfinamide] | 9.4 | –
37 | NC(=O)C(=NO)c1ccco1 [2-(Furan-2-yl)-2-(hydroxyimino)acetamide] | 9.4 | –
38 | C#CC(=NO)C(N)=O [2-(Hydroxyimino)but-3-ynamide] | 9.4 | –
39 | NC(=O)C(=NO)c1nccs1 [2(Hydroxyimino)-2-(thiazol-2-yl)acetamide] | 8.7 | –
40 | O=C1C(=NO)c2ccccc2N1c1ccccc1 [3-(Hydroxyimino)-1-phenylindoline-2-one] | 9.0 | –
41 | NC(=O)C(=NO)c1cnccn1 [2-(Hydroxyimino)-2-(pyrazin-2-yl)acetamide] | 9.4 | –
42 | NC(=S)C(=NO)c1ncccn1 [2-(Hydroxyimino)-2-(pyrimidin-2-yl)ethanethioamide] | 10.5 | –
43 | ON=c1[nH]cc[nH]1 [1,3-Dihydro-2H-imidazol-2-one oxime] | 8.2 | –
44 | CN(C)[S+]([O-])C(=NO)c1ccccc1 (stereo not shown) [1-(Hydroxyimino)-N,N-dimethyl-1-phenylmethanesulfinamide] | 7.4 | –
45 | CN1C(=O)C(=NO)c2ccccc21 [3-(Hydroxyimino)-1-methylindolin-2-one] | 9.4 | –
46 | CC(=NO)C(C)=NO [Butane-2,3-dionedioxime] | 12.1 | –
